From the supplement of paper PMC10307832

What was measured:
Assay in all cases: relative viability (nuclei count vs DMSO), 5 days (fraction); higher = more cells survive
[1] = compound: N=C1NC(=O)/C(=C/c2ccc(O)cc2)S1 [Mirin] + C[C@@H](Oc1cc(-c2cnn(C3CCNCC3)c2)cnc1N)c1c(Cl)ccc(F)c1Cl [Crizotinib] (partner 1 µM)
Procedure, shortened: (§1)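 Dosing by pin tool came one day after lung cancer cell lines were seeded in 1536-well plates, using either one drug or a fixed anchor-drug dose plus five library-drug doses (not always all listed) in √10 steps. After 5 days, nuclei were counted on 4× images. Relative viability is treated-well nuclei count divided by vehicle-well nuclei count, and values are medians of duplicate plates.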

[2] = compound: CCn1c(-c2nonc2N)nc2cnc(Oc3cccc(NC(=O)c4ccc(OCCN5CCOCC5)cc4)c3)cc21 + CS(=O)(=O)CCNCc1ccc(-c2ccc3ncnc(Nc4ccc(OCc5cccc(F)c5)c(Cl)c4)c3c2)o1 [Lapatinib] (partner 2 µM)
Procedure, shortened: as §1

[3] = compound: CCn1c(-c2nonc2N)nc2cnc(Oc3cccc(NC(=O)c4ccc(OCCN5CCOCC5)cc4)c3)cc21 + COc1cccc2cc(-c3nc([C@H]4CC[C@H](C(=O)O)CC4)n4ncnc(N)c34)[nH]c12 [OSI-027] (partner 0.5 µM)
Procedure, shortened: as §1

[4] = compound: CCn1c(-c2nonc2N)nc2cnc(Oc3cccc(NC(=O)c4ccc(OCCN5CCOCC5)cc4)c3)cc21 + Nc1nc2[nH]cc(CCc3ccc(C(=O)N[C@@H](CCC(=O)O)C(=O)O)cc3)c2c(=O)[nH]1 [Pemetrexed] (partner 0.2 µM)
Procedure, shortened: as §1

UMC-11 showed a relative viability ([1]; first compound 0.25 µM) of 0.499, a relative viability ([1]; first compound 0.7906 µM) of 0.578 and a relative viability ([1]; first compound 2.5 µM) of 0.529. For the same cell line, the relative viability ([1]; first compound 7.906 µM) was 0.496, the relative viability ([1]; first compound 25 µM) was 0.236 and the relative viability ([2]; first compound 0.04 µM) was 0.959. The relative viability ([2]; first compound 0.1265 µM) was 0.833, the relative viability ([2]; first compound 0.4 µM) was 0.509 and the relative viability ([2]; first compound 1.265 µM) was 0.223. It also gave a relative viability ([2]; first compound 4 µM) of 0.258, a relative viability ([3]; first compound 0.04 µM) of 0.44 and a relative viability ([3]; first compound 0.1265 µM) of 0.41. The relative viability ([3]; first compound 0.4 µM) was 0.355, the relative viability ([3]; first compound 1.265 µM) was 0.208 and the relative viability ([3]; first compound 4 µM) was 0.179. The relative viability ([4]; first compound 0.04 µM) was 0.813, the relative viability ([4]; first compound 0.1265 µM) was 0.596 and the relative viability ([4]; first compound 0.4 µM) was 0.613. For the same cell line, the relative viability ([4]; first compound 1.265 µM) was 0.283 and the relative viability ([4]; first compound 4 µM) was 0.231.
